No end group written: not given here.
Legend:
[1] = tested on: HIV-1; settings: 10 μM, 2 days, HIV-1-infected MT-4 cells
Experimental: To evaluate anti-HIV-1 effects of the three polypeptides, cell-based anti-viral effects were analyzed. MT-4 cells (4×10^5 cells) were infected with HIV-1 (4×10^5 CCID50) for 1 hour. The MT-4 cells were obtained from NIH/AIDS Research and Reference Reagent Program. 293FT cells were transfected for 48 hr with HIV-1 using a pBR_HIV-1_M_NL4-3_IRES_eGFP vector (DS441) which co-expresses Nef and enhanced green fluorescence protein (eGFP) from a single bicistronic RNA, and Lipofectamine 2000 reagent (Life Technologies). A supernatant containing a viral precursor HIV-1 was harvested, and the viral titer was determined using p24 ELISA (ABL). For amplification of infectious HIV-1, MT-4 cells were infected with the viral precursor HIV-1 at a multiplicity of infection (MOI) of 0.5 for 72 hr. […]
In this regard, DMSO and AZT were purchased from Sigma-Aldrich. After 2 days of incubation, GFP images were obtained using a fluorescence microscope. The relative GFP intensity was determined using an ImageJ software program (National Institutes of Health) in pixels per area. […] Cell viability against the treated reagents was assessed by an MTT assay.
In detail, MT-4 cells were prepared at a density of 1×10^4 cells, and incubated with varying concentrations of Poly6 for 5 days. Cytotoxicity was determined using an MTT assay kit (Promega). […]

[2] = tested on: HBV; test: Anti-HBV effect in HepG2.2.15 or pHBV-1.2x-WT transfected HepG2 cells (HBsAg/HBeAg ELISA, Q-PCR, Southern blot); assay type: cell-based; settings: for e antigen / s antigen: treated for 48 hr
Experimental: In this Experimental Example, HBV polymerase-derived peptides having anti-HBV effects were identified, and cell viability upon treatment thereof was analyzed. […] Then, quantitative PCR and ELISA were performed to examine virion replication and HBV surface antigen (HBsAg).
Chronic HBV infection is known to cause severe liver diseases such as cirrhosis and hepatocellular carcinoma, unlike acute infection. Therefore, it is important to develop anti-HBV drugs that overcome chronic infections. However, since the HBV genome is integrated into the host chromosome, the complete removal of the virus from human liver and serum remains a difficult problem. Therefore, in this Experimental Example, to evaluate the anti-viral effect of Poly6, HepG2.2.15 permanent cell line that continuously expresses HBV was treated with Poly6. Further, HepG2 cells were seeded in a 6-well plate, and then transiently transfected with pHBV-1.2×-WT. […] To measure secreted HBsAg and HBeAg in culture supernatants, HBsAg (BIOKIT) and HBeAg (AccuDiag) ELISA were performed according to experimental methods provided. For detection of 8-hydroxy-2′-deoxyguanosine (8-OHdG) activity, an 8-OHdG assay kit (OxiSelect Oxidative DNA Damage ELISA kit, Cell Biolabs) and ELISA were performed according to the manufacturer's protocol.
To measure extracellular virion secretion, Southern blot analysis was performed. In detail, before ultra-centrifugation at 4° C. and 24,000 rpm for 3 hr, cell debris was removed, and virions were precipitated from the supernatant using 8% PEG6000 (Sigma) on ice for 1 hr. Pellets were harvested with PBS, and HBV DNA was collected using a QIAamp DNA mini kit (QIAGEN) according to the manufacturers instructions. Viral DNA was measured using quantitative real-time PCR (Q-PCR). PCR amplification was performed using a QPCR primer set targeting a small surface gene, which is designed to amplify an a101-bp product (Table 2). Q-PCR was performed using a commercial SensiFAST SYBR Lo-ROX kit (BIOLINE) and an HBV Genesig standard kit (Primer design) to calibrate a viral load. In addition, to detect extracellular HBV DNA, supernatants were collected and HBV particles were precipitated using […] (Sigma) as described above. Virus pellets were collected from PBS and DNA was extracted with a lysis buffer (0.25% SDS, 250 mM Tris-HCl, pH 7.4 and 250 mM EDTA). Purified HBV DNA was separated on a 1% agarose gel, transferred to a nylon membrane (Hybond N+; Amersham) by Southern blotting, and hybridized with a 32P-labeled wild-type, full length HBV DNA probe. Analysis was performed using a random primer DNA labeling kit (TaKaRa). Autoradiography was performed and analyzed using a BAS 2500 image analyzer (Fuji Photo Film).

[3] = tested on: HepG2 cells; test: Cell viability (MTS assay), HepG2; assay type: cell-based, human; settings: up to 10 μM
Experimental: (§2) In detail, HepG2, HepG2.2.15, and HepG2-hNTCP-C4 cells (expressing NTCP receptors on the cell membrane) were plated in a 96 microplate (1×10^4 cells/well), and incubated for 5 days with increasing concentrations of ETV (30 nM) and Poly6. For an MTS assay, a cell-titer 96 aqueous one solution was directly added to each well, and the plate was incubated for 3 hr. The plate was read at 490 nm, and each analysis was repeated in triplicate.

[4] = tested on: MT-4 cells; test: Cytotoxicity assay (MTT) in MT-4 cells; settings: up to 25 μM, 5 days
Experimental: Cell viability against the treated reagents was assessed by an MTT assay.
In detail, MT-4 cells were prepared at a density of 1×10^4 cells, and incubated with varying concentrations of Poly6 for 5 days. Cytotoxicity was determined using an MTT assay kit (Promega).

[5] = tested on: HepG2-hNTCP-C4 cells; settings: up to 10 μM
Experimental: as §2

[6] = tested on: HepG2.2.15 cells; settings: up to 10 μM
Experimental: as §2

[7] = tested on: HIV-1; settings: HIV-1-infected MT-4 cells, 5 days, dose-dependent manner
Experimental: In detail, MT-4 cells were prepared at a density of 1×10^4 cells, and incubated with varying concentrations of Poly6 for 5 days. Cytotoxicity was determined using an MTT assay kit (Promega). To analyze the anti-cytotoxic effect of Poly6 from cell death caused by cytotoxicity due to HIV-infection, MT-4 cells (1×10^4 cells) were infected with HIV-1 (1×10^4 CCID50), incubated for five days, and then subjected to cell viability assays. In addition, to determine HIV-1 titers in the supernatant, p24 ELISA was performed. […] Similar to AZT, cytopathic inhibitory effects of Poly6 on HIV-1-infected MT-4 cells were analyzed.

[8] = tested on: mitochondrial reactive oxygen species (mtROS); test: Mitochondrial reactive oxygen species (MitoSox, flow cytometry) in HepG2 cells; assay type: cell-based, human; settings: for production of reactive oxygen species (mtROS) by mitochondrial stress: HepG2 cells, 2 hr to 24 hr, compared with PBS, rotenone 0.5 μM
Experimental: After culturing the cells for an appropriate time, the cells were incubated with 5 μM of MitoSox (Molecular probes) at 37° C. for 30 min. For flow cytometry, cell pellets were re-suspended in FACS buffer (1% FBS and 1 mM EDTA in PBS) and fixed with 4% paraformaldehyde. To prevent mitochondrial dysfunction, 10 μM of MitoTempo (SigmaAldrich) was pretreated for 12 hr, and 0.5 μM of rotenone (SigmaAldrich) reagent was used as a positive control for ROS induction through mitochondrial stress.

[9] = tested on: IFN-I; test: IFN-I related mRNA levels in HepG2-2.15 cells; assay type: cell-based, human; settings: compared with PBS group
Text: IFN-I is induced by host cells to regulate viral infection (Stetson & Medzhitov, 2006). Therefore, to examine the effect of Poly6 on IFN-I production in HepG2-2.15 cells and mouse liver, mRNA levels of IFN-β, RIG-I, and ISG15 were examined.
In addition, to measure IFN levels by indirectly using a luciferase reporter gene for IFN-I bioassay and neutralization analysis, hMH55-293-ISRE cells was used, into which interferon sensitive response element (ISRE) associated with the luciferase reporter gene was inserted at the 3′-end using 5 μg of puromycin (Sigma Aldrich). After collecting supernatants from cells treated with each reagent for 24 hr or 48 hr, the supernatants were added to hMH55-293-ISRE cells for 6 hr. After incubation, cells were washed with PBS, and lysed with a reporter lysis buffer (E1500, Promega) at room temperature for 30 min. A luciferase assay reagent (E1500, Promega) was added and luminescence was measured using a TECAN m200 reader (TECAN).
(§1) Through the combination treatment of entecavir, which is currently used as an HBV anti-viral agent having a mechanism whereby activity of HBV polymerase in the nucleus is inhibited and converted to a phosphorylated form, and Poly6, which was confirmed to increase IFN-I, its anti-HBV effect and synergistic effect of IFN-I increase were examined. HepG2-2.15 cells were incubated at a density of 5×10^5 cells/well on a 6-well culture plate for 24 hr, and treated with PBS, ETV, or Poly6 alone or in combination of two substances. After incubating the cells for 48 hr, supernatants were collected, and subjected to ELISA, qPCR, and LDH assay.
Meanwhile, to examine a synergistic effect of the combination treatment of two substances with respect to the increase level of IFN-I, mRNAs of single treatment groups and combination treatment groups were extracted, and IFN-α, IFN-β, and TNF-α expression levels were observed. […] In addition, IFN levels were indirectly measured using a luciferase reporter gene of hMH55-293-ISRE cell.

[10] = tested on: HBV; test: Combination treatment of entecavir and Poly6 in HepG2-2.15 cells (ELISA, qPCR); assay type: cell-based; settings: HepG2-2.15, 48 hr
Experimental: as §1

[11] = compared with PBS (combination vs each single treatment)

With GRLVF (Hepatitis B virus) [Poly5] the “virus production (HIV-1 titers by GFP imaging and p24 ELISA)” value [1] was “reduced”, the e antigen [2] was “reduced” and the s antigen [2] was “reduced”.

In the case of GRLVFQT (Hepatitis B virus) [Poly7], the “virus production (HIV-1 titers by GFP imaging and p24 ELISA)” value [1] is reported as “reduced”, the e antigen [2] is reported as “reduced” and the s antigen [2] is reported as “reduced”.

In the case of GRLVFQ [Poly6, GRLVFQ], the “cytotoxic activity / cell viability, HepG2” value [3] is reported as “did not exert significant cytotoxic activity”, the “cytotoxic activity against MT-4 cells (MTT)” value [4] is reported as “did not exert significant cytotoxic activity” and the “cytotoxic activity / cell viability, HepG2-hNTCP-C4” value [5] is reported as “did not exert significant cytotoxic activity”. The “cytotoxic activity / cell viability, HepG2.2.15” value [6] was “did not exert significant cytotoxic activity”.

With Cc1cn([C@H]2C[C@H](N=[N+]=[N-])[C@@H](CO)O2)c(=O)[nH]c1=O [AZT, 3-azido-3-deoxythymidine] the “cell protective effect (cytopathic inhibitory effect)” value [7] was “significant cell protective effect”.

C=C1[C@H](CO)[C@@H](O)C[C@@H]1n1cnc2c(=O)[nH]c(N)nc21 [ETV, entecavir] was tested, and the “production of reactive oxygen species (mtROS) by mitochondrial stress” value [8] was “not observed”, the “viral replication levels (viral titers)” value ([2]; ETV 30 nM, Poly6 10 μM, 2 days) was “reduced by ETV, but there was no statistical significance” and the “extracellular virion secretion (Southern blot)” value ([2]; compared with PBS) was “clearly decreased”. The “mRNA level of IFN-β” value [9] was “no statistical significance”, the “mRNA level of ISG15” value [9] was “no statistical significance” and the “mRNA level of RIG-I” value [9] was “no statistical significance”. The “extracellular HBV DNA levels” value ([10]; compared with PBS (combination also vs single treatment)) was “statistically significantly reduced”, the “level of extracellular e antigen” value [10, 11] was “no significant reduction effect” and the “level of extracellular s antigen” value [10, 11] was “no significant reduction effect”.

For CC1(C)CC(NC(=O)C[P+](c2ccccc2)(c2ccccc2)c2ccccc2)CC(C)(C)N1[O] [MitoTEMPO], the “mitochondrial reactive oxygen species increased by rotenone and Poly6, after antioxidant treatment” value ([8]; MitoTempo 10 μM pretreated 12 hr) was “reduced again”.

In the case of C=C(C)[C@H]1Cc2c(ccc3c2O[C@@H]2COc4cc(OC)c(OC)cc4[C@@H]2C3=O)O1 [rotenone], the “production of reactive oxygen species (mtROS) by mitochondrial stress” value [8] is reported as “significantly increased”.

Source: patent US11692011B2, “Hepatitis B virus-derived polypeptide and anti-viral use thereof” (priority 2018, dated 2023)
